From patent US20060100146A1, “AWAT-related methods and articles” (priority 2004, published 2006) come the findings set out here.

Where “and” joins values, the source holds several entries; their conditions need not be identical. Equal values may be shown once.

In one experiment the target is T1, human AWAT1 (DGA2) (Homo sapiens, UniProt Q58HT5).
T1 construct: The full length DGA2 was sub cloned into the EcoRI and NotI sites of the pRS423-GP vector; made in house; host or cells: Saccharomyces cerevisiae SCY2056 (dga1Δ lro1Δ are2), galactose-inducible pRS423-GP vector; microsomes used
T1 sequence (Q58HT5 1-328): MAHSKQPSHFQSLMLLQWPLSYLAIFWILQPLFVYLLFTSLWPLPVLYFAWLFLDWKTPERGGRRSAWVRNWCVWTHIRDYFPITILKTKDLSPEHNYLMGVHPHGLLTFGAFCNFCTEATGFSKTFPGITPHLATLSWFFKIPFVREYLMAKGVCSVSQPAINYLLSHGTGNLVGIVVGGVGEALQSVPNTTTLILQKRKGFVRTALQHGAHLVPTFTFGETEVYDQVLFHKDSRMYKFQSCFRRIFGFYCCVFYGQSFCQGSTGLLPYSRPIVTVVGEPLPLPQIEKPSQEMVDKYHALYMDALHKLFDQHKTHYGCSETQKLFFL
Briefly: In vitro AWAT substrate specificity assay, AWAT1 microsomes. It is filed as biochemical. The settings on record: for Activity of AWAT1 (DGA2) towards various wax alcohols / Activity of AWAT1 (DGA2) towards various acyl-CoAs: 20 μg microsomes, wax ester formed, vector control removed, mean +/- Std. dev., triplicate; for Activity of AWAT1 (DGA2) towards various wax alcohols: [14C]oleoyl-CoA as acyl donor; for Activity of AWAT1 (DGA2) towards various acyl-CoAs: [14C]cetyl alcohol as acyl acceptor. The procedure: (§1) Acyl-CoA wax alcohol acyltransferase (AWAT) assays were performed as above with the following exceptions: 200 μM cetyl alcohol (unlabeled or [^14C]-labeled 10,000 dpm/nmol) was substituted for DAG, oleoyloleate was used as carrier, and reactions were incubated for 20 min in a final volume of 250 μl. After separation by TLC, the spot corresponding to wax ester was cut out and counted. For alcohol and acyl-CoA substrate specificity studies, microsomal preparations from DGA2 (20 μg) and hDC4 (10 μg) were used. Kill reactions and vector controls were included for all experiments. The various wax alcohols and acyl-Co A's were substituted for cetyl alcohol or oleoyl Co A at the concentrations specified above. Activity is presented as pmol/min/mg protein.
(§2) In vitro AWAT assays were performed using microsomal preparations from TG null yeast strains transformed with human AWAT1 (DGA2), AWAT2 (hDC4) or a vector control harboring no insert. AWAT1 (20 μg) and AWAT2 (10 μg) microsomes were assayed as described under Experimental Procedures. Activity is in pmol of wax ester formed per min/mg protein, expressed as a mean±Std. dev. from a representative experiment performed in triplicate. Vector control background has been removed. In vitro determination of alcohol and acyl-CoA substrate specificities were performed with [^14C]oleoyl-CoA and the indicated alcohols or [^14C]cetyl alcohol and the indicated acyl-CoA donors (Table 3A and 3B, respectively). Kill reactions were included for all experiments.

The next experiment has as its target T2, human AWAT2 (hDC4) (Homo sapiens, UniProt Q6E213).
T2 construct: The full-length hDC4 was then sub cloned into the EcoRI site of the pRS423-GP vector; made in house; host or cells: Saccharomyces cerevisiae SCY2056 (dga1Δ lro1Δ are2), galactose-inducible pRS423-GP vector; microsomes used
T2 sequence (Q6E213 1-333): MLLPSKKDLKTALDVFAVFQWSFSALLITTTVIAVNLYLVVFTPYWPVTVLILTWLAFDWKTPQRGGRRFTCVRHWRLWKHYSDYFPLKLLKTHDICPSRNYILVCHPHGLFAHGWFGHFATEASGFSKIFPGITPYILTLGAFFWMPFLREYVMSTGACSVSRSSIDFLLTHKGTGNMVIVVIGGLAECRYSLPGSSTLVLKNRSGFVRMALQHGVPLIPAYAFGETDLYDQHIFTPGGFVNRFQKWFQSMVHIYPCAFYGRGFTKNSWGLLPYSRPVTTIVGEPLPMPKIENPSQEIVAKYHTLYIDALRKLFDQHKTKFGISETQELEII
The experiment is described as follows: In vitro AWAT substrate specificity assay, AWAT2 microsomes. It is filed as biochemical. The settings on record: for Activity of AWAT2 (hDC4) towards various wax alcohols / Activity of AWAT2 (hDC4) towards various acyl-CoAs: 10 μg microsomes, wax ester formed, vector control removed, mean +/- Std. dev., triplicate; for Activity of AWAT2 (hDC4) towards various wax alcohols: [14C]oleoyl-CoA as acyl donor; for Activity of AWAT2 (hDC4) towards various acyl-CoAs: [14C]cetyl alcohol as acyl acceptor. The protocol:
as §1, §2

The test system of experiment [1] is TAG formation from dioleoylglycerol and [14C]oleoyl-CoA. The experiment is described as follows: In vitro DGAT (diacylglycerol esterification) assay in yeast microsomes. It is filed as biochemical. The settings on record: microsomes from TG-null yeast expressing the human enzyme; dioleoylglycerol + [14C]oleoyl-CoA; TAG formed; vector control subtracted; mean +/- Std. dev., 3 replicate experiments. The procedure:
(§3) A dilute inoculation of each strain into 500 mL of SC-His+2% galactose+1% raffinose was grown overnight at 30° C. into log phase. Cells were washed and lysed, and microsomes were prepared from a 100,000 g spin, as previously described (39). Protein concentrations were determined (40) and diacylglycerol esterification assays were performed as described previously (17,19,41). In brief, microsomes (100 μg) were preincubated for 5 min at 37° in 100 mM TRIS, pH 7.5 containing 0.25 M sucrose, 1 mM EDTA, 10 mM MgCl2, 20 μM fatty acid free BSA, 160 μM dioleoylglycerol (in 5 μl acetone, final volume 200 μl). The reaction was initiated by the addition of [^14C]oleoyl-CoA (10-20,000 dpm/nmol, 40 μM) and stopped after 10 min by the addition of 4 ml of chloroform:methanol (2:1 v/v). Carrier TAG (10 μg) and internal standard ([^3H]triolein, 30,000 dpm) were added followed by 0.8 ml water to separate phases. The lower chloroform layer containing the lipids was removed, evaporated to dryness, resuspended in 50 μl chloroform and individual lipid classes separated on Varian chromatography paper using a hexane:diethyl ether:acetic acid (170:30:1 v/v) mobile phase. The spot corresponding to TG was cut out and counted.
(§4) Microsomes from TG-null yeast strains transformed with human DGAT2, DGA2, hDC3, or hDC4 were incubated in the presence of dioleoylglycerol or cetyl alcohol and [^14C]oleoyl-CoA and assayed for esterification as described in Experimental Procedures. Data are expressed as pmol of neutral lipid (TAG or Wax ester) formed per min/mg protein as a mean±Std. dev. DGAT activities are from 3 replicate experiments and AWAT activities are from a representative experiment performed in triplicate. Background levels to the assay from strains transformed with vector control have been subtracted.

The subject of experiment [2] is wax ester formation from cetyl alcohol and oleoyl-CoA. Briefly: In vitro AWAT (acyl-CoA wax alcohol acyltransferase) assay in yeast microsomes. It is filed as biochemical, human. The procedure: as §3, §1, §4
Where [3] appears, read: microsomes from TG-null yeast expressing the human enzyme, cetyl alcohol + [14C]oleoyl-CoA, wax ester formed, vector control subtracted, mean +/- Std. dev., triplicate.

Consider `CCCCCCCCCCO` [Decyl C-10, decyl alcohol], for which the “Activity of AWAT1 (DGA2) towards various wax alcohols” value on human AWAT1 (DGA2) was 419 +/− 180 pmol/min/mg protein. Also, the “Activity of AWAT2 (hDC4) towards various wax alcohols” value on human AWAT2 (hDC4) was −50 +/− 277 pmol/min/mg protein. Further, at human AWAT2 (hDC4) (oleoyl CoA as acyl donor), the “AWAT2 activity using the alcohol (in words)” value is “no activity”.

As to `CCCCCCCCCCCCCCCCCC(=O)SCCNC(=O)CCNC(=O)[C@H](O)C(C)(C)COP(=O)(O)OP(=O)(O)OC[C@H]1O[C@@H](n2cnc3c(N)ncnc32)[C@H](O)[C@@H]1OP(=O)(O)O` [Stearoyl C-18, stearoyl CoA], at human AWAT1 (DGA2), the “Activity of AWAT1 (DGA2) towards various acyl-CoAs” value is on record as 656 +/− 39 pmol/min/mg protein. Besides, the “Activity of AWAT2 (hDC4) towards various acyl-CoAs” value at human AWAT2 (hDC4) is 549 +/− 38 pmol/min/mg protein.

Consider `CCCCCCCCCCCCCCCCCCO` [Stearyl C-18], for which, at human AWAT1 (DGA2), the “Activity of AWAT1 (DGA2) towards various wax alcohols” value is given as 27 +/− 5 pmol/min/mg protein. In addition, the “Activity of AWAT2 (hDC4) towards various wax alcohols” value at human AWAT2 (hDC4) is 138 +/− 24 pmol/min/mg protein.

With `CCCCCCCCCCCCCCCCCCCCO` [Arachidyl C-20, arachidyl alcohol], on human AWAT1 (DGA2), the “Activity of AWAT1 (DGA2) towards various wax alcohols” value is reported as 22 +/− 4 pmol/min/mg protein. At human AWAT1 (DGA2) (oleoyl CoA as acyl donor), the “Utilization by AWAT1 relative to decyl alcohol” value is reported as “about 5%”. The “Activity of AWAT2 (hDC4) towards various wax alcohols” value on human AWAT2 (hDC4) is reported as 27 +/− 4 pmol/min/mg protein.

On to `CCCCCCCCCCCCCCCC(=O)SCCNC(=O)CCNC(=O)[C@H](O)C(C)(C)COP(=O)(O)OP(=O)(O)OC[C@H]1O[C@@H](n2cnc3c(N)ncnc32)[C@H](O)[C@@H]1OP(=O)(O)O` [Palmitoyl C-16], for which, at human AWAT1 (DGA2), the “Activity of AWAT1 (DGA2) towards various acyl-CoAs” value was 390 +/− 121 pmol/min/mg protein. For the same molecule, the “Activity of AWAT2 (hDC4) towards various acyl-CoAs” value on human AWAT2 (hDC4) is recorded as 524 +/− 164 pmol/min/mg protein.

In the case of `CCCCCC/C=C\CCCCCCCC(=O)SCCNC(=O)CCNC(=O)[C@H](O)C(C)(C)COP(=O)(O)OP(=O)(O)OC[C@H]1O[C@@H](n2cnc3c(N)ncnc32)[C@H](O)[C@@H]1OP(=O)(O)O` [Palmitoleoyl C-16:1, palmitoleoyl CoA], the “Activity of AWAT1 (DGA2) towards various acyl-CoAs” value at human AWAT1 (DGA2) is −20 +/− 25 pmol/min/mg protein. The “AWAT1 activity using the acyl-CoA (in words)” value on human AWAT1 (DGA2) (cetyl alcohol as acyl acceptor) is “no activity”. Also, at human AWAT2 (hDC4), the “Activity of AWAT2 (hDC4) towards various acyl-CoAs” value is 1125 +/− 220 pmol/min/mg protein.

Take `CCCCCCCCCCCCCCCCO` [Cetyl (Palmityl) C-16, cetyl alcohol]: the “Activity of AWAT1 (DGA2) towards various wax alcohols” value on human AWAT1 (DGA2) is on record as 83 +/− 6 pmol/min/mg protein. In addition, the “Activity of AWAT2 (hDC4) towards various wax alcohols” value at human AWAT2 (hDC4) is 665 +/− 54 pmol/min/mg protein.

`CCCCCCCC/C=C\CCCCCCCC(=O)SCCNC(=O)CCNC(=O)[C@H](O)C(C)(C)COP(=O)(O)OP(=O)(O)OC[C@H]1O[C@@H](n2cnc3c(N)ncnc32)[C@H](O)[C@@H]1OP(=O)(O)O` [Oleoyl C-18:1, oleoyl CoA]: at human AWAT1 (DGA2), the “Activity of AWAT1 (DGA2) towards various acyl-CoAs” value was 113 +/− 7 pmol/min/mg protein. In addition, the “Utilization by AWAT1 relative to stearoyl CoA (C18:0)” value on human AWAT1 (DGA2) (cetyl alcohol as acyl acceptor) amounted to 20%. On human AWAT2 (hDC4), the “Activity of AWAT2 (hDC4) towards various acyl-CoAs” value is 1232 +/− 349 pmol/min/mg protein.

On to `CCCCCCCC/C=C\CCCCCCCCO` [Oleyl C-18:1], for which the “Activity of AWAT1 (DGA2) towards various wax alcohols” value at human AWAT1 (DGA2) is recorded as 247 +/− 23 pmol/min/mg protein. The “Activity of AWAT2 (hDC4) towards various wax alcohols” value at human AWAT2 (hDC4) was 892 +/− 106 pmol/min/mg protein.

`CCCCCC/C=C\CCCCCCCCO` [Palmitoleyl C-16:1]: the “Activity of AWAT1 (DGA2) towards various wax alcohols” value at human AWAT1 (DGA2) is reported as 184 +/− 29 pmol/min/mg protein. The “Activity of AWAT2 (hDC4) towards various wax alcohols” value at human AWAT2 (hDC4) is listed as 582 +/− 117 pmol/min/mg protein.

B1: DGAT2: human diacylglycerol acyltransferase 2, expressed in TG-null yeast; microsomes assayed (protein, UniProt Q96PD7 1-388, looked up)
Diacylglycerol …: MKTLIAAYSGVLRGERQAEADRSQRSHGGPALSREGSGRWGTGSSILSALQDLFSVTWLNRSKVEKQLQVISVLQWVLSFLVLGVACSAILMYIFCTDCWLIAVLYFTWLVFDWNTPKKGGRRSQWVRNWAVWRYFRDYFPIQLVKTHNLLTTRNYIFGYHPHGIMGLGAFCNFSTEATEVSKKFPGIRPYLATLAGNFRMPVLREYLMSGGICPVSRDTIDYLLSKNGSGNAIIIVVGGAAESLSSMPGKNAVTLRNRKGFVKLALRHGADLVPIYSFGENEVYKQVIFEEGSWGRWVQKKFQKYIGFAPCIFHGRGLFSSDTWGLVPYSKPITTVVGEPITIPKLEHPTQQDIDLYHTMYMEALVKLFDKHKTKFGLPETEVLEVN
modifications: yeast microsomes
notes: human diacylglycerol acyltransferase 2, expressed in TG-null yeast; microsomes assayed
As to B1, the “DGAT Activity” value in experiment [1] was 65.4 pmol/min/mg protein and 65.4 +/− 3.4 pmol/min/mg protein. Also, in experiment [2] (setting [3]), the “AWAT Activity” value is −11.5 +/− 1.3 pmol/min/mg protein.

B2: DGA2: acyl-CoA wax alcohol acyltransferase 1, synonym diacyl-glycerol acyltransferase 2; human enzyme expressed in yeast microsomes (protein, UniProt Q58HT5 1-328, looked up)
Acyl-CoA wax alcohol …: T1 sequence (Q58HT5 1-328)
modifications: yeast microsomes
notes: acyl-CoA wax alcohol acyltransferase 1, synonym diacyl-glycerol acyltransferase 2; human enzyme expressed in yeast microsomes
In the case of B2, the “DGAT Activity” value in experiment [1] is reported as 7.8 +/− 3.2 pmol/min/mg protein. For the same molecule, the AWAT Activity is 113 pmol/min/mg in experiment [2] ([14C]cetyl alcohol rather than radiolabeled oleoyl CoA as monitor of ester formation); 31.7 pmol/min/mg protein and 31.7 +/− 17.4 pmol/min/mg protein in experiment [2] (setting [3]).
